Assay [1] has as its system CCL26. As to the kind of experiment: CCL26 release by esophageal epithelial cells (EPC2). The format is cell-based, human. As to the method: FIG. 12A: Poly I:C-induced TSLP production by SPINK7 knockout EPC2 cells (Human esophageal epithelial cells). SPINK7 KO cells and control cells were plated in high calcium and high density, for 48 hours before being treated with SP16 or 7G and Poly I:C (5 μg/ml, or untreated) for 8 hours. TSLP production in the supernatant was measured by ELISA. FIG. 12B: primary esophageal epithelial cells (EPC2) were treated with SP16 and then stimulated with IL-13, a TH2 response mediated cytokine, to induce CCL26.
SP16 reduces several key cytokines involved in allergic responses. Upon knockout of SPINK7, esophageal epithelial cells release exacerbated levels of TSLP. TSLP is a key mediator of immune cell responses upon activation to an insult such as allergens.

For assay [2], the system named is GAP-43 mRNA. The experiment in a line: RT-qPCR of GAP-43 mRNA in primary cultured adult DRG neurons. The format is cell-based, rat. Particulars: 240 nM, 24 h, vs vehicle.
Assay [3] relates to TSLP. As to the kind of experiment: MC903 AD model, TSLP in ears and serum by ELISA. The format is in vivo, mouse. Particulars: topical, vs MC903 treated mice. As to the method: (§1) Mice were treated with SP16 in 70% EtOH (MC903+SP16) or drug vehicle (MC903). Normal control (NC) mice were treated with EtOH only. Ears were measured for PAR2 protein expression through western blot analysis (quantitative analysis after normalization to beta-actin shown) (n=3-5). TSLP was measured in both the ears and serum by ELISA (N=3-5). Scratching was assessed over a 3 minute period after a 5-minute acclimatization period and the number of scratches are shown (n=3). IL-4 was measured in ear lysate via ELISA (N=3-5).

In assay [4] the test system is phospho-ERK1/2. The experiment in a line: Cell signaling analysis in PC12 cells, immunoblot of phospho-ERK1/2. The format is cell-based, rat. The protocol:
Cell signaling analysis: Rat PC12 cells were purchased from ATCC (CRL-1721). PC12 cells were maintained in high glucose DMEM (Gibco, USA) containing 10% heat-inactivated FBS (Gibco, USA), 5% HyClone heat-inactivated horse serum (Cytiva, USA), penicillin (100 units/ml) and streptomycin ([…]) in 6-well plates that were pre-coated with 0.01 mg/ml type IV collagen (Sigma-Aldrich, St. Louis, MO, USA). Cells were transferred to serum-free medium (SFM) 4 h prior to adding effectors, and then treated with SP163M (2.4, 24 or 240 nM); EI-tPA (12 nM), NGF (0.36 nM), or vehicle (PBS) for 10 min. In some cases, cells were pre-incubated with the competitive antagonist of LRP1, GST-RAP (150 nM) for 15 min or electroporated using the Rat Neuron Nucleofector Amaxa Kit (Lonza Biosciences) and incubated with siRNA to silence LRP1 expression (siLRP1; M-094191-01-0010, Dharmacon) for 48 h. Control cells were transfected with non-targeting control (NTC) siRNA (NTC; D-001810-10-05, Dharmacon). Cells were rinsed with ice-cold PBS and proteins were extracted in RIPA buffer (20 mM sodium phosphate, 150 mM NaCl, pH 7.4, 1% Triton X-100, 0.5% sodium deoxycholate, 0.1% SDS) supplemented with protease and phosphatase inhibitors (Roche Diagnostics, USA). After 30 min on ice, lysates were centrifuged at 15000×g for 5 min, supernatant collected and stored at −20° C. Equal amounts of protein from cell lysates (20 μg), as determined by BCA Protein Assay (ThermoFisher Scientific, Waltham, MA, USA), were subjected to 10% SDS-PAGE and electro-transferred to nitrocellulose membranes. The membranes were blocked with 5% nonfat dried milk and then incubated with primary anti-phospho-AKT (Cell Signaling Technology, Danvers, MA, USA; cat #9271S; 1:1000), anti-phospho-ERK1/2 (Cell Signaling Technology, Danvers, MA, USA; cat #9101S; 1:1000), anti-LRP1 (Cell Signaling Technology, Danvers, MA, USA; cat #64099S; 1:1000) or anti total-ERK1/2 (Cell Signaling Technology, Danvers, MA, USA; cat #91012S; 1:1000). Immunoblots were developed using Radiance, Radiance Q, and Radiance Plus chemiluminescent substrates and imaged using a BioRad ChemiDoc Imaging System (Bio-Rad, Hercules, CA, USA).

The test system of assay [5] is CCL24. As to the kind of experiment: OVA-challenge allergic inflammation model, CCL24 in BALF by ELISA. The note with it: OVA-challenge in sensitized mice, treated during challenge phase, vs vehicle. The format is in vivo, mouse. The protocol:
(§2) Mice were subjected to the OVA-challenge allergic inflammation model and treated with vehicle or SP16 during the challenge phase. The bronchoalveolar lavage fluid (BALF) was analyzed for cytokines via ELISA.
(§3) The ova-induced model of allergic inflammation is a widely used model of eosinophilic driven allergic diseases.

Assay [6] deals with IL-2. The experiment in a line: OVA-challenge allergic inflammation model, IL-2 in BALF by ELISA. The note with it: OVA-challenge in sensitized mice, treated during challenge phase, vs vehicle. Format: in vivo, mouse. As to the method: as §2, §3
Assay [7] concerns NFκB. The experiment in a line: NFκB reporter assay stimulated with LPS (THP1-XBlue-MD2-GD14 reporter cells, SEAP read-out). The format is cell-based. Particulars: peptide 50 μg/ml before LPS 5 ng/ml, overnight. The protocol:
The reporter cells (THP1-XBlue-MD2-GD14 cells) were treated with each peptide (50 μg/ml) before being insulted with LIPS (5 ng/ml) and incubated overnight. The NFκB inducible Secreted Embryonic Alkaline Phosphatase (SEAP) was measured in the supernatant and read for absorbance.

The test system of assay [8] is PAR2. The experiment in a line: MC903 AD model, PAR2 protein expression in ears by western blot. The format is in vivo, mouse. Particulars: topical, vs MC903. As to the method: as §1
Assay [9] deals with MC903 induced atopic dermatitis and pruritis in mice. The experiment in a line: MC903 (calcipotriol) induced AD-like inflammatory skin model, topical treatment: dermatitis score, ear volume, scratching. The format is in vivo, mouse. The protocol:
SP16 (in 70% ethanol) was applied topically to the ears on the days of the MC903 applications (MC903+SP16). Drug vehicle (70% EtOH) was applied to control animals (MC903) and normal control animals (NC) received EtOH in place of MC903. In-life parameters: Dermatitis score (FIG. 16A) and ear volume (FIG. 16B) measured on days 0, 3, 7, 9, 11 and 14. […] Clinical Dermatitis Score (score 0-4 for each parameter)-erythema, scale/dryness, edema, excoriation/erosion (total score 0-16).
as §1

Assay [10] relates to eosinophil infiltration into the lungs of mice. The experiment in a line: OVA-induced allergic inflammation model, eosinophils in BALF by flow cytometry. Particulars: p=0.04. The format is in vivo, mouse. As to the method:
FIG. 15A: mice were subjected to the OVA-challenge allergic inflammation model and treated with vehicle, SP16, or A1AT during the challenge phase. The BALF was collected and analyzed for the percent of eosinophils and compared to saline (non-challenged) mice, vehicle OVA induced mice, or SP16 treated OVA induced mice.
The impact of SP16 treatment on eosinophilic infiltration in mice was assessed using the OVA-induced allergic inflammation model. The number of eosinophils in the bronchoalveolar lavage fluid was quantified by flow cytometry.

With “VKFNKPFVFLMIEQNTK (SP16 peptide core sequence including the LRP1 binding site; listed as Homo sapiens)”, the “CCL26 release (text: Poly 1:C mediated)” value in assay [1] (primary SPINK7 knockout esophageal cells) is “effective in significantly reducing Poly 1:C mediated TSLP and CCL26 release”. In addition, in [1] (primary esophageal epithelial cells (EPC2), SP16 then IL-13), the “CCL26 release induced by IL-13” value is on record as “significantly reduced CCL26 release dose dependently”. Further, the “GAP-43 mRNA” value in assay [2] is listed as “increased GAP-43 mRNA compared to vehicle-treated neurons”. In [3], the “local (ear) TSLP” value was “significant reduction in systemic (serum) and local (ear) TSLP”; the “systemic (serum) TSLP” value was “significant reduction in systemic (serum) and local (ear) TSLP”. Moreover, in [4] (240 nM, 0-30 min), the “activation of ERK1/2 over time” value is on record as “robustly activated ERK1/2 from 5 to 30 min”. In addition, the “lowest concentration that activated phospho-ERK1/2” value in [4] (10 min, 0-240 nM) amounted to 24 nM. For the same sequence, the “activation of ERK1/2 in cells transfected with NTC siRNA” value in assay [4] (48 h after transfection) is listed as “ERK1/2 was robustly activated”. For the same sequence, in assay [5], the “CCL24 in BALF” value is recorded as “significantly reduces CCL24”. For the same sequence, the “IL-2 in BALF” value in [6] is “significantly reduces IL-2”. Further, in assay [7], the “NFκB activity (NFκB inducible SEAP in supernatant)” value was “capable of reducing NFκB activity”. In assay [8], the “PAR2 protein expression in ears” value is “PAR2 and TSLP inhibition”. In addition, the “disease (dermatitis score, ear volume)” value in assay [9] (topical solution (1%) in 70% ethanol, 14-day period, vs vehicle-treated mice) is “significant improvement in disease vs. vehicle-treated mice”. Further, in [9] (topical, vs vehicle (MC903) treated mice), the “pruritis (number of scratches over 3 minutes)” value was “significantly reduces pruritis”. Besides, the “eosinophil infiltration into the lungs (eosinophils in BALF)” value in assay [10] was “reduces eosinophil infiltration into the lungs”.

(Values after US20250161419A1, “SERPIN PEPTIDES AND METHODS OF USING THE SAME” (SERPIN PHARMA, LLC, priority 2022, published 2025).)
